Results: patent publication US10829506B2, “Amino- or ammonium-containing sulfonic acid, phosphonic acid and carboxylic acid derivatives and their medical use” (GRI Bio, Inc., priority 2011, dated 2020)

Columns and labels:
RBL-2H3 cells = assay: Inhibition of mast cell degranulation (β-hexosaminidase release); type: cell-based, rat; settings: Rattus norvegicus, RBL-2H3 cells sensitized with anti-DNP IgE, triggered with DNP-HSA, 1 h preincubation
Source text: Mast cells are key effector cells involved in allergic and inflammatory diseases, and the Rat Basophilic Leukemia clone 2H3 (RBL-2H3) cell line is a commonly used model of allergen dependent immune modulator release (degranulation) in mast cells. On their surface, they express the high affinity receptor for IgE (FcεRI). Upon binding of antigen-specific IgE to the receptor, cells become sensitized to the IgE specific antigen (allergen). When IgE-sensitized cells then encounter multivalent antigen, the antigen clusters IgE-FcεRI complexes and initiates a signal transduction cascade that leads to degranulation, that is, the release of inflammatory mediators, such as cytokines, eicosanoids, histamine and enzymes. The assay can be used as a screening method to identify immune-modulating compounds, in particular compounds useful in the medical management of allergic and inflammatory diseases and asthma, β-hexosaminidase was previously shown to be released with the same kinetics as histamine (Schwartz et al., J Immunology; 123:1445-1450 (1979)), thus offering a simple means to monitor degranulation. The RBL-2H3 cell line has been successfully used to identify compounds with anti-allergic activity (Choo et al. Planta Med., 69:518-522 (2003)).
Cell Culture: RBL-2H3 cells obtained from the German Collection of Microorganisms and Cell Cultures (ACC312) (Braunschweig, Germany) were maintained in 70% Minimum Essential Medium with Earle's Salts, 20% RPMI 1640 Medium, 10% FBS and 2 mM l-glutamine in 95% air/5% CO2 at 37° C. and routinely checked for mycoplasma contamination. Cells were passaged every 3-4 days; after washing cells once with 35 ml PBS cells were incubated 8 min with 5 ml 0.05% Trypsin-EDTA solution at 37° C. Cells were removed from the incubator, 15 ml culture medium was added and cells were resuspended by repeated pipetting.
Cell seeding: cells were harvested with Trypsin-EDTA as described and 50-100 μl cell suspension seeded Into Costar CellBind 24 well cluster plates (no. 3337). Plates were kept for 30 min at RT under the sterile hood before being transferred to the incubator. Cells were used within one or two days after seeding.
For sensitization, cells for immediate use were sensitized 6-12 h after plating; cells to be used the following day were sensitized 26-38 h after plating. Culture plates were removed from the incubator and checked for cell growth and contamination. The medium was discarded and cells were sensitized with anti-DNP IgE (0.4 μg/ml) in 0.4 ml culture medium overnight. Following overnight sensitization, cells were washed with 0.8 ml pre-warmed TyB and 0.38 ml test compound or vehicle control (supplemented or not with 1% FBS) were added to duplicate wells. Samples were adjusted to contain 1% vehicle for test compounds dissolved in organic solvents. Cells were incubated for 1 h at 37° C. At the end of the incubation period, cells were routinely stimulated with 20 μl DNP-HSA (2 μg/ml; final concentration 0.1 μg/ml) diluted in TyB and cells were incubated for 15 min at 37° C. Alternatively, cells were stimulated with 20 μl […] (final concentration 0.25 μM) or 20 nM […] (final concentration 0.25 μM), both in the absence or presence of 20 nM PMA (final concentration).
Plates were removed from the incubator and immediately centrifuged at 4° C. for 5 min at 250×g and transferred to an ice bath. Aliquots of supernatants, 25 μl, were transferred to 96-well plates. Remaining supernatant was aspirated from control wells and cells were lysed in […] lysis buffer for 5 min at RT on an orbital shaker at 450 rpm under non-sterile conditions. After lysis, 25 μl aliquots of lysates were transferred to 96-well plates.
MUG substrate solution, 100 μl, were added to supernatant and lysate samples and plates were incubated 30 min at 37° C. The reaction was terminated by addition of 150 μl stop solution. Fluorescence was measured at 365 nm excitation and 440 nm emission wavelengths. […]

[1] = Body weight and toxic side-effects in the DTH study; type: in vivo, mice; settings: oral
Description: Three hours after the last dose, the antigen challenge was performed on the ears as described above. Dexamethasone was given at 1 mg/kg orally by gavage 3 h before sensitization and once daily with the final dose given 3 h prior to antigen challenge (a total of 7 administrations). All administrations were given in a volume of 10 mL/kg.
Such high dosing (overdose) is, however, not suitable for treatment of humans due to severe side effects of the corticosteroid and was only used to validate the responsiveness of the model.

Q: With `CCCCCCCCCCCCCC[N+](C)(C)CCCS(=O)(=O)[O-]` [Compound 1a, 3-(N,N-Dimethylmyristylammonio)-Propanesulfonate] as the compound, how does the IC50 (RBL-2H3 cells) read?
A: 3.2 µM

Q: And the “Toxic side-effects during the course of the study” value [1]?
A: no toxic side-effects
